Measured values: US8907106B2, “Process for the resolution of enantiomers by preferential evaporative crystallization” (Universite de Rouen, priority 2009, dated 2014)

Assay: Solubility of the racemic mixture in methanol
Assay type: physicochemical

O=C([O-])C(O)c1ccccc1Cl.[Na+] (racemic) [Sodium 2-chloromandelate]
difference in solubility of the racemic mixture between 40° C. and 20° C. (40° C. vs 20° C., in absolute value, solvent of Example 2 is methanol): 0.85%
Solubility of the racemic mixture in the methanol at reflux (methanol at reflux): 23%
